Results on four molecules are retold here after patent US20240336868A1, “COMPOSITIONS COMPRISING ADAMANTYL ESTER-CONTAINING COMPOUNDS” (The Procter & Gamble Company, priority 2023, published 2024).

The format of the data set is physicochemical. The settings on record: for Head-space: headspace above about 2E+06 ng/mL solution in isopropyl myristate (IPM); for Head-space / Air/IPM partition coef: 30° C., average of three replicates; for Air/IPM partition coef: in isopropyl myristate (IPM). The procedure: Perfume headspace data is collected for various materials according to the method provided below.
The partition coefficients are calculated by determining the amount of PRM in the headspace above a solution with a known concentration using a GC/FID-MS (Agilent 7890 and 5977A MSD) with a thermal desorption unit (Gerstel MPS2) and Dynamic Headspace Sampler (Gerstel DHS). This technique allows for automated headspace collections using the MultiPurposeSampler (MPS). The PRMs of interest are prepared at a known concentration in isopropyl myristate (IPM) or propylene glycol monomethyl ether (DPM), and 1 mL is pipetted in a 20 mL headspace vial.
DHS Conditions: The sample is tempered in the unit at 30° C. A helium stream at 10 mls/min purges 20 mL of headspace containing the analytes above the sample onto the sorbent tube (TDU) containing 25 mg of TenaxTA 35/60 (Restek cat #25701).
TDU conditions: The sorbent tube is desorbed with a program starting at 30° C. solvent vent for 2 min then ramped at 720° C./min to 270° C. and held for 8 min. The analytes are refocused on a glass bead liner at −60° C. then desorbed at a rate of 12° C./s to 270° C. onto the GC column.
GC/MS conditions: Agilent 122-5532 UI column of 30 m×250 μm×0.25 μm and a flow rate of 1.5 mL/min is utilized. A temperature program of 50° C. to 280° C. with a 2 min hold and a ramp rate of 12° C./min is suitable. Scan or SIM mode MSD parameters with a solvent delay for the DPM are applied to achieve appropriate detection.
Analytical standards can be obtained from AK Scientific, Inc., Union City, CA 94587, USA. A stock solution is prepared at approximately 0.5 g/L. The stock solution is then diluted to 4 to 5 concentrations ranging from approximately 0.05 g/L to 0.00005 g/L. These standard solutions are then analyzed by GC/MS. This analysis is performed by using the same TDU desorption and GC/MS conditions described above with a 1 μL liquid injection onto the TDU tube instead of the DHS collection. The amount injected on column and the area responses of the target m/z are utilized to create a calibration plot with a linear fit.
Quantification of the headspace is performed by the PRM target m/z area response of the perfume component and the linear equation of the calibration plot.
Perfume headspace data is collected for various materials according to the Headspace Method provided above in the Test Methods section. The Air/Solvent partition coefficients are determined and indexed accordingly (e.g., where the partition coefficient for OTNE is set at 1.00).
Results for 2-adamantyl propanoate, 2-adamantyl acetate, and 2-methyl-2-adamantyl acetate in isopropyl myristate (IPM) are provided below in Table 1.

On to `CC(=O)OC1C2CC3CC(C2)CC1C3` (stereo not drawn) [2-adamantyl acetate], for which the “OTNE Indexed Air/IPM partition coefficient” value was 8.30, the Head-space was found to be 0.1793 ng/mL and the Air/IPM partition coef is reported as 8.66E−08 ng/mL in air per ng/mL in IPM.
For the molecule `CCC(=O)OC1C2CC3CC(C2)CC1C3` (stereo not drawn) [2-adamantyl propanoate], the “OTNE Indexed Air/IPM partition coefficient” value worked out at 5.47, the Head-space is 0.1182 ng/mL and the Air/IPM partition coef is 5.71E−08 ng/mL in air per ng/mL in IPM.
In the case of `CC(=O)OC1(C)C2CC3CC(C2)CC1C3` (stereo not drawn) [2-methyl-2-adamantyl acetate], the “OTNE Indexed Air/IPM partition coefficient” value is reported as 8.67, the Head-space was 0.1874 ng/mL and the Air/IPM partition coef is recorded as 9.05E−08 ng/mL in air per ng/mL in IPM.
On the same counts, the results for `CC(=O)C1(C)CC2=C(CCCC2(C)C)CC1C` (stereo not drawn) [OTNE, 1-(1,2,3,4,5,6,7,8-Octahydro-2,3,8,8-tetramethyl-2-naphthalenyl) ethanone, reference compound] are 1.00, 0.0216 ng/mL and 1.04E−08 ng/mL in air per ng/mL in IPM.
